# Test results: US8507686B2, “Substituted bicyclic methyl azetidines as sphingosine-1 phosphate receptors modulators” (Allergan, Inc., priority 2011, dated 2013)
# Biological target: T1, human S1P1 receptor (Homo sapiens, UniProt P21453)
# T1 construct: expressed in transfected cells; host or cells: cells stably expressing the S1P1 receptor; membranes used
# Test: GTP γ35S binding assay for S1P1 activity
# Format: biochemical
# Conditions: membranes of cells stably expressing the S1P1 receptor; agonist-induced GTP γ35S binding; read-out: EC50 at the S1P1 receptor from GTP γ35S
# Protocol: Novel compounds were synthesized and tested for S1P1 activity using the GTP γ^35S binding assay. These compounds may be assessed for their ability to activate or block activation of the human S1P1 receptor in cells stably expressing the S1P1 receptor. […] binding was measured in the medium containing (mM) HEPES 25, pH 7.4, MgCl2 10, NaCl 100, dithitothreitol 0.5, digitonin 0.003%, 0.2 nM GTP γ^35S, and 5 μg membrane protein in a volume of 150 μl. Test compounds were included in the concentration range from 0.08 to 5,000 nM unless indicated otherwise. Membranes were incubated with 100 μM 5′-adenylylimmidodiphosphate for 30 min, and subsequently with 10 μM GDP for 10 min on ice. Drug solutions and membrane were mixed, and then reactions were initiated by adding GTP γ^35 S and continued for 30 min at 25° C. Reaction mixtures were filtered over Whatman GF/B filters under vacuum, and washed three times with 3 mL of ice-cold buffer (HEPES 25, pH7.4, MgCl2 10 and NaCl 100). Filters were dried and mixed with scintillant, and counted for ^35S activity using a β-counter. Agonist-induced GTP γ^35 S binding was obtained by subtracting that in the absence of agonist. Binding data were analyzed using a non-linear regression method. In case of antagonist assay, the reaction mixture contained 10 nM […] in the presence of test antagonist at concentrations ranging from 0.08 to 5000 nM.
# T1 sequence (P21453 whole entry): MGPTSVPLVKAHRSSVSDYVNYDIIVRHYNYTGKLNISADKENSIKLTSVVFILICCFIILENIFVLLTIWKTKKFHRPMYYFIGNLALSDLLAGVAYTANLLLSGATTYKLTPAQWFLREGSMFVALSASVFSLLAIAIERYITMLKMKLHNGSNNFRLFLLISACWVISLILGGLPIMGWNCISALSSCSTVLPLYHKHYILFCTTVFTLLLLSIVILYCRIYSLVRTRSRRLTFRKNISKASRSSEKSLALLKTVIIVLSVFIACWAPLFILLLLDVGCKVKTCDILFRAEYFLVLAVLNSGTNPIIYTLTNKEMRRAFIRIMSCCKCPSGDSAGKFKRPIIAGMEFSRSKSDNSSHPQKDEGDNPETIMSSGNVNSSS
smiles,measurement,value
O=C(O)C1CN(Cc2ccc(C#CCCCCc3ccccc3)c3cccnc23)C1 [Compound 1],EC50,390 nM
